From patent publication US8546381B2, “Bridged heterocyclic compounds and methods of use” (Medivation Technologies, Inc., priority 2008, dated 2013)

Assays:
[1] = system: rat central imidazoline I2 receptor; test: Central imidazoline I2 radioligand binding ([3H]Idazoxan); conditions: compound at 1 μM; inhibition of specific [3H]Idazoxan binding
Method: To evaluate in radioligand binding assays the activity of compounds of the invention, rat central imidazoline I2 receptor obtained from Wistar Rat cerebral cortex (Brown, C. M. et al., Br. J. Pharmacol. 99:803, 1990) in a modified Tris-HCl buffer (50 mM Tris-HCl buffer, pH 7.4, 0.5 mM EDTA) was used. Compounds of the invention were incubated with 2 nM [^3H]Idazoxan for 30 minutes at 25° C. Non-specific binding was estimated in the presence of 1 μM Idazoxan. Receptor proteins were filtered and washed, the filters were then counted to determine [^3H]Idazoxan specifically bound. Compounds were screened at 1 μM or lower, using 1% DMSO as vehicle. Compounds of the invention were tested in this biochemical assay and percent inhibition of specific binding was determined.

[2] = biological target: T1, human recombinant adrenergic α1D receptor (Homo sapiens, UniProt P25100); test: Adrenergic α1D radioligand binding ([3H]Prozosin); conditions: for inhibition at 1 µM: read-out: Adrenergic α1D, inhibition of ligand binding (1 μM)
T1 construct: expressed in transfected cells; host or cells: HEK-293 cells
T1 sequence (P25100 1-572): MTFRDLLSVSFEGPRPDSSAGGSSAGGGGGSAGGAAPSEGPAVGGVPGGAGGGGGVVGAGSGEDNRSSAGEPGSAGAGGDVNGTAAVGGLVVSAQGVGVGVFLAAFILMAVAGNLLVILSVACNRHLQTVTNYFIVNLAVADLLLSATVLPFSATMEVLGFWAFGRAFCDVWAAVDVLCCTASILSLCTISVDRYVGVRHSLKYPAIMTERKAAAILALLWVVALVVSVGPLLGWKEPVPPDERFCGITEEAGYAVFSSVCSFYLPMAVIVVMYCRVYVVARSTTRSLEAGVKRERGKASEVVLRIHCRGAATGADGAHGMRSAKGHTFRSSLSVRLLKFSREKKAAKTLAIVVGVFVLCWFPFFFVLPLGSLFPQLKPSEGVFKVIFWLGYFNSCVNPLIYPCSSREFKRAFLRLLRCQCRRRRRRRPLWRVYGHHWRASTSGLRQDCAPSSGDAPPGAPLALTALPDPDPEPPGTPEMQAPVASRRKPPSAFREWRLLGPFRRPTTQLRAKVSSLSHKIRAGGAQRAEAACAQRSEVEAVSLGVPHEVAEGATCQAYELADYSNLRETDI
Method: To evaluate in radioligand binding assays the activity of compounds of the invention, human recombinant adrenergic α1D receptor expressed in human embryonic kidney (HEK-293) cells (Kenny, B. A. et al. Br. J. Pharmacol. 115(6):981, 1995) in a 50 mM Tris-HCl buffer, pH 7.4, was used. Compounds of invention were incubated with 0.6 nM [^3H]Prozosin for 60 minutes at 25° C. Non-specific binding was estimated in the presence of 10 μM phentolamine. Receptor proteins were filtered and washed, the filters were then counted to determine [^3H]Prozosin specifically bound. Compounds were screened at 1 μM or lower, using 1% DMSO as vehicle. Biochemical assay results are presented as the percent inhibition of specific binding in Table 3.

[3] = biological target: T2, human recombinant serotonin (5-Hydroxytryptamine) 5-HT2B receptor (Homo sapiens, UniProt P41595); test: Serotonin 5-HT2B radioligand binding ([3H]LSD); conditions: for inhibition at 1 µM: read-out: Serotonin 5-HT2B, inhibition of ligand binding (1 μM)
T2 construct: expressed in transfected cells; host or cells: CHO-K1 cells
Method: To evaluate in radioligand binding assays the activity of compounds of the invention, human recombinant serotonin (5-Hydroxytryptamine) 5-HT2B receptor expressed in Chinese hamster ovary (CHO-K1) cells (Bonhaus, D. W. et al., Br. J. Pharmacol. 115:622, 1995) in a modified Tris-HCl buffer (50 mM Tris-HCl, pH 7.4, 4 mM CaCl2, 0.1% Ascorbic Acid) was used. Compounds of invention were incubated with 1.2 nM [^3H]Lysergic acid diethylamide (LSD) for 60 minutes at 37° C. Non-specific binding was estimated in the presence of 10 μM Serotonin (5-HT). Receptor proteins were filtered and washed, the filters were then counted to determine [^3H]LSD specifically bound. Compounds were screened at 1 μM or lower, using 1% DMSO as vehicle. Compounds of the invention were tested in this biochemical assay and percent inhibition of specific binding was determined. Biochemical assay results are presented as the percent inhibition of specific binding in Table 4.

[4] = biological target: T3, human recombinant serotonin (5-Hydroxytryptamine) 5-HT7 receptor (Homo sapiens, UniProt P34969); test: Serotonin 5-HT7 radioligand binding ([3H]LSD); conditions: for inhibition at 1 µM: read-out: Serotonin 5-HT7, inhibition of ligand binding (1 μM)
T3 construct: expressed in transfected cells; host or cells: CHO cells
Method: To evaluate in radioligand binding assays the activity of compounds of the invention, human recombinant serotonin (5-Hydroxytryptamine) 5-HT7 receptor expressed in Chinese hamster ovary (CHO) cells (Roth, B. L. et al., J. Pharmacol. Exp. Ther. 268:1403, 1994; Shen, Y. et al., J. Biol. Chem. 268:18200, 1993) in a modified Tris-HCl buffer (50 mM Tris-HCl, pH 7.4, 10 mM MgCl2, 0.5 mM EDTA) was used. Compounds of invention were incubated with 5.5 nM [^3H] Lysergic acid diethylamide (LSD) for 2 hours at 25° C. Non-specific binding was estimated in the presence of 10 μM Serotonin (5-HT). Receptor proteins were filtered and washed, the filters were then counted to determine [^3H]LSD specifically bound. Compounds were screened at 1 μM or lower, using 1% DMSO as vehicle. Biochemical assay results are presented as the percent inhibition of specific binding in Table 4.

T2 sequence (P41595 whole entry): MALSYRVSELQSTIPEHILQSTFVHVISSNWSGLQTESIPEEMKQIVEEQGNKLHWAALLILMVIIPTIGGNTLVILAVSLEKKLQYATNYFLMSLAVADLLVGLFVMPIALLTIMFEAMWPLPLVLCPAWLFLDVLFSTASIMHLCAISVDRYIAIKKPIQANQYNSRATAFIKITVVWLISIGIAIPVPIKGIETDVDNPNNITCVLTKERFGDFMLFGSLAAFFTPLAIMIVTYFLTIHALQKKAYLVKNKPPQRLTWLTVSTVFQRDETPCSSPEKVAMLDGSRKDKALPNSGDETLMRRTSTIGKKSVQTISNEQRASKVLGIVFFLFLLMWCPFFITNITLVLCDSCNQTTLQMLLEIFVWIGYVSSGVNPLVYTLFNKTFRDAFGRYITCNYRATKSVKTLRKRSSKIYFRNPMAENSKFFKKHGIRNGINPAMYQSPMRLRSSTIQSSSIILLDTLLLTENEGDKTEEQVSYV
T3 sequence (P34969 whole entry): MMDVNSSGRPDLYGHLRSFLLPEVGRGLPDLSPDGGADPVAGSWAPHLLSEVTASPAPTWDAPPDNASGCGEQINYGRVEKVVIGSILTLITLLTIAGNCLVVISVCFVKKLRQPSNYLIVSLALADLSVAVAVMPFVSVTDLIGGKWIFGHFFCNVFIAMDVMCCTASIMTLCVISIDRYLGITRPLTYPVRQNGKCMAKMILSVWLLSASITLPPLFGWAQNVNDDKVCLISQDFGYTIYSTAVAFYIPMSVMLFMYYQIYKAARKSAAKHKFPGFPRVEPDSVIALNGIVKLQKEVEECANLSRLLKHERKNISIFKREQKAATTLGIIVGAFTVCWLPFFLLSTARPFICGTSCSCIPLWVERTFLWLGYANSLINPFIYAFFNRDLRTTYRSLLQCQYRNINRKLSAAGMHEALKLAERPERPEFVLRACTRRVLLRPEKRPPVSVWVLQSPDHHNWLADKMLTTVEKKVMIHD

## Cc1ccc2c(c1)c1c(n2CCc2ccccc2)CC2CCC1N2C (stereo not shown) [Compound 2]
[1]
  Imidazoline I2 Central (1 μM), Percentage Inhibition: 70%
[2]; 0.03 μM, read-out: Adrenergic α1D, inhibition of ligand binding (0.03 μM)
  inhibition at 0.03 µM: 44%
[2]; 0.3 μM, read-out: Adrenergic α1D, inhibition of ligand binding (0.3 μM)
  inhibition at 0.3 µM: 85%
[2]
  inhibition at 1 µM: 94%
[3]; read-out: Serotonin 5-HT2B, inhibition of ligand binding (0.03 μM)
  inhibition at 0.03 µM: 37%
[3]; read-out: Serotonin 5-HT2B, inhibition of ligand binding (0.3 μM)
  inhibition at 0.3 µM: 88%
[3]
  inhibition at 1 µM: 71%
[4]; read-out: Serotonin 5-HT7, inhibition of ligand binding (3.0 nM)
  inhibition at 0.003 µM: 38%
[4]; read-out: Serotonin 5-HT7, inhibition of ligand binding (0.03 μM)
  inhibition at 0.03 µM: 81%
[4]
  inhibition at 1 µM: 98%

## CN1C2CCC1c1c(n(CCC(=O)N3CCCC3)c3ccc(Cl)cc13)C2 (stereo not shown) [Compound 5]
[1]
  Imidazoline I2 Central (1 μM), Percentage Inhibition: 25%
[2]
  inhibition at 1 µM: 21%

## CN1C2CCC1c1c(n(CCC(=O)N3CCOCC3)c3ccc(Cl)cc13)C2 (stereo not shown) [Compound 13]
[1]
  Imidazoline I2 Central (1 μM), Percentage Inhibition: −7%
[2]
  inhibition at 1 µM: 8%

## CN1C2CCC1c1c(n(CCc3ccc(Cl)cc3)c3ccc(F)cc13)C2 (stereo not shown) [Compound 33]
[1]
  Imidazoline I2 Central (1 μM), Percentage Inhibition: 6%
[2]
  inhibition at 1 µM: 36%

## CN1C2CCC1c1c(n(CCc3ccc(F)cc3)c3ccc(F)cc13)C2 (stereo not shown) [Compound 35]
[1]
  Imidazoline I2 Central (1 μM), Percentage Inhibition: 33%
[2]
  inhibition at 1 µM: 78%

## Cc1ccc2c(c1)c1c(n2CCc2ccccc2)CC2CCCC1N2C (stereo not shown) [Compound 56]
[1]
  Imidazoline I2 Central (1 μM), Percentage Inhibition: 27%
[2]
  inhibition at 1 µM: 65%
[3]
  inhibition at 1 µM: -11%
[4]
  inhibition at 1 µM: 92%

## CN1C2CCC1c1c(n(CCc3ccc(F)cc3)c3ccc(Cl)cc13)C2 (stereo not shown) [Compound 57]
[1]
  Imidazoline I2 Central (1 μM), Percentage Inhibition: 8%
[2]
  inhibition at 1 µM: 69%
[3]
  inhibition at 1 µM: 48%
[4]
  inhibition at 1 µM: 94%

## CN1C2CCC1c1c(n(CCc3ccc(Cl)cc3)c3ccc(Cl)cc13)C2 (stereo not shown) [Compound 58]
[1]
  Imidazoline I2 Central (1 μM), Percentage Inhibition: 8%
[2]
  inhibition at 1 µM: 74%
[3]
  inhibition at 1 µM: 32%
[4]
  inhibition at 1 µM: 93%

## CN1C2CCC1c1c(n(CC(=O)N3CCOCC3)c3ccc(Cl)cc13)C2 (stereo not shown) [Compound 59, 2-(2-chloro-11-methyl-5,6,7,8,9,10-Hexahydro-7,10-iminocyclohept[b]indol-5-yl)-1-morpholinoethanone]
[1]
  Imidazoline I2 Central (1 μM), Percentage Inhibition: −8%
[2]
  inhibition at 1 µM: 2%

## CN1C2CCC1c1c(n(CC(=O)N3CCCC3)c3ccc(Cl)cc13)C2 (stereo not shown) [Compound 60]
[1]
  Imidazoline I2 Central (1 μM), Percentage Inhibition: 1%
[2]
  inhibition at 1 µM: 1%

## Cc1ccc(CCn2c3c(c4cc(Cl)ccc42)C2CCC(C3)N2C)cc1 (stereo not shown) [Compound 61]
[1]
  Imidazoline I2 Central (1 μM), Percentage Inhibition: 22%
[2]
  inhibition at 1 µM: 80%

## Cc1ccc2c(c1)c1c(n2CCc2ccc(F)cc2)CC2CCC1N2C (stereo not shown) [Compound 62]
[1]
  Imidazoline I2 Central (1 μM), Percentage Inhibition: 52%
[2]
  inhibition at 1 µM: 83%

## C/C(=C\n1c2c(c3cc(C)ccc31)C1CCC(C2)N1C)c1ccc(Cl)cc1Cl (stereo not shown) [Compound 163]
[2]
  inhibition at 1 µM: 53%
[4]
  inhibition at 1 µM: 87%
